The target in assay [1] is human mutant B-raf (HuBraf V600E) (Homo sapiens (Human), UniProt P15056, V600E). Particulars: at 10 μM compound concentration; POC = 100 − percent inhibition.
Procedure: B-Raf Homogenous Time Resolved Fluorescence (HTRF) Kinase Assay
The final concentration of the kinase reaction buffer is 50 mM Tris-HCl pH 7.5, 10 mM MgCl2, 0.5% glucose, 0.5 mM DTT, 0.01% BSA. […] The detection reaction proceeds for one hour and is read on a RubyStar (BMG Labtech, Durham, N.C.) counter. IC50s for the test compounds are generated using Excel-XLfit software. For single concentration percent of control (POC;=100−percent inhibition) assays, compounds were assayed as above at a single test concentration of 10 M test compound.
For assay [2], the system named is phosphorylation of Akt at Serine 473 in U87 MG cells. As to the kind of experiment: cells. Particulars: Homo sapiens, U-87 MG, 2 h, read-out: U87Cell IC50, pAkt (Ser 473), U87 MG cells, two hours with compound.
Assay [3] deals with PI3Kα (Homo sapiens (Human), UniProt P42336). Particulars: read-out: PI3Kα AlphaScreen ® Ki.
Chain of PI3Kα (P42336 whole entry): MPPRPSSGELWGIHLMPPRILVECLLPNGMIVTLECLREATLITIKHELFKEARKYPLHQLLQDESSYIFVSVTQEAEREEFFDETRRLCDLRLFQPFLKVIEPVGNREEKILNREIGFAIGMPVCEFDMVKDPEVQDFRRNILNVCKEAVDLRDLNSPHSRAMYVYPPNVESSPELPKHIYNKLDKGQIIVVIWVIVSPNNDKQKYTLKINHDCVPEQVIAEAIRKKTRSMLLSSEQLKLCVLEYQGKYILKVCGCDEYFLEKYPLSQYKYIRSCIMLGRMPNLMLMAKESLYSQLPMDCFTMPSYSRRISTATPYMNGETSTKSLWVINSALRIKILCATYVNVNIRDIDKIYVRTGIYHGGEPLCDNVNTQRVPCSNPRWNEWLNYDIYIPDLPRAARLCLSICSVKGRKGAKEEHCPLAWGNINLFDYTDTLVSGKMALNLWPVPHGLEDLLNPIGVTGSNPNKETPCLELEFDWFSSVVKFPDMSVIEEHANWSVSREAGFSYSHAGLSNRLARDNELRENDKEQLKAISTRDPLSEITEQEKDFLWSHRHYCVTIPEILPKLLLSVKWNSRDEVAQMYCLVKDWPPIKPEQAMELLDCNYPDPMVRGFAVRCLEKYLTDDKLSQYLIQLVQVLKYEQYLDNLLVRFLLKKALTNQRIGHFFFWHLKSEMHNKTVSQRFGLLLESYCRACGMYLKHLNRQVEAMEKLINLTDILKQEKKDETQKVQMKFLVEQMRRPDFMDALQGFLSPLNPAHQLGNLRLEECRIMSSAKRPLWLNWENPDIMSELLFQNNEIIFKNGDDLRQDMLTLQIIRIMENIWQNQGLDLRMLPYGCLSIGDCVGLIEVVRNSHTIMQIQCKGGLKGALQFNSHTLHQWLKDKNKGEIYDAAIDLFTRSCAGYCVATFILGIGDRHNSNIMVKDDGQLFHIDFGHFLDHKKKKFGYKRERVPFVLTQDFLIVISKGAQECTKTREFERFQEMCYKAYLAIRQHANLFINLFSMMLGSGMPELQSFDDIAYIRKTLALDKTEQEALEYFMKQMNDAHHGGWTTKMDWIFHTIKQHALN
Chain of PI3Kα (P27986 whole entry partner): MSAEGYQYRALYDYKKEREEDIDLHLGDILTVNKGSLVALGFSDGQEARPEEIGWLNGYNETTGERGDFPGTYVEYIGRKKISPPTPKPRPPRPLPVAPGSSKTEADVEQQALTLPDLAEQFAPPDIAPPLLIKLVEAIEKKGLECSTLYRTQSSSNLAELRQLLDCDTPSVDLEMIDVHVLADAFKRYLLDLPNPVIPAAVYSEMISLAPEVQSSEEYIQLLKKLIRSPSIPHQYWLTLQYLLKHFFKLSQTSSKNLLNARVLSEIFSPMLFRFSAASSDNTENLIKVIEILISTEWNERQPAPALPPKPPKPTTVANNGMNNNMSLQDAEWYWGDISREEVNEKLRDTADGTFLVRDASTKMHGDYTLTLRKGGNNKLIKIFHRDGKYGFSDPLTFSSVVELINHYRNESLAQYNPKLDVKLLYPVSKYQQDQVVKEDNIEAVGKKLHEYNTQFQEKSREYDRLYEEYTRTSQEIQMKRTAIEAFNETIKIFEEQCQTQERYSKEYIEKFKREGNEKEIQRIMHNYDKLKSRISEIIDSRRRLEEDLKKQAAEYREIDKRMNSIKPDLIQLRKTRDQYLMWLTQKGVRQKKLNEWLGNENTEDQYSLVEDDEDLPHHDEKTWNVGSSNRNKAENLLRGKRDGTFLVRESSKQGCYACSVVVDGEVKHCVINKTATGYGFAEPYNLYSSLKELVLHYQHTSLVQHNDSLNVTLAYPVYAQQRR

Chain of human mutant B-raf (HuBraf V600E) (P15056 whole entry V600E): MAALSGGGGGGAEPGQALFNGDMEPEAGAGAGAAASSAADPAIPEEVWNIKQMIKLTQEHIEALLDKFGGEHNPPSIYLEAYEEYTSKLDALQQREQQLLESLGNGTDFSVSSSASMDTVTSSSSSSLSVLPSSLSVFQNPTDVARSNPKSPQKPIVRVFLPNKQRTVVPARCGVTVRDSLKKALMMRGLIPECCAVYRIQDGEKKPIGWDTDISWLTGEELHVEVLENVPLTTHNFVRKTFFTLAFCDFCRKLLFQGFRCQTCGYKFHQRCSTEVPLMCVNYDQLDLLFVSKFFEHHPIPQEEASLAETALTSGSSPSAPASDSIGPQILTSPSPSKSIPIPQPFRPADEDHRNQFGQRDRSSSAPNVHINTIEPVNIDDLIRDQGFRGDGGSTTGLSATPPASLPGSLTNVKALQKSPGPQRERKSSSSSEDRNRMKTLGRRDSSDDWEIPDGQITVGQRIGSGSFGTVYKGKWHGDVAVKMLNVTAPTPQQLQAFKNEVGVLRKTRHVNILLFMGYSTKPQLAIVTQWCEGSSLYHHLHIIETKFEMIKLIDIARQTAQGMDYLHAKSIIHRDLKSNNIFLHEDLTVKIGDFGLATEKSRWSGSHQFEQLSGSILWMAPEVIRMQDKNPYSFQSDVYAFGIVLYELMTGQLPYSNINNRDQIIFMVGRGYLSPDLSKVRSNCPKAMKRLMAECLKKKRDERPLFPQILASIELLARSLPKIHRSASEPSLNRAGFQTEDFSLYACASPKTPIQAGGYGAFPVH

Turning to `Cc1nc(N)nc(-c2cccnc2Nc2cccc3[nH]ncc23)n1` [Example 24, N-(3-(4-Amino-6-Methyl-1,3,5-Triazin-2-yl)Pyridin-2-yl)-1H-Indazol-4-Amine], the “Mutant B-raf HTRF Assay POC Mean n = 2” value in assay [1] is 94% of Control (POC). Same read-out and setting: next, `COc1ccc(Nc2ncccc2-c2nc(C)nc(N)n2)cn1` [Example 25, 4-(2-(6-Methoxypyridin-3-Ylamino)Pyridin-3-yl)-6-Methyl-1,3,5-Triazin-2-Amine]: 95% of Control (POC); `COc1ccc(Nc2ncc(C)cc2-c2nc(C)nc(N)n2)cn1` [Example 31, 4-(2-(6-Methoxypyridin-3-Ylamino)-5-Methylpyridin-3-yl)-6-Methyl-1,3,5-Triazin-2-Amine]: 97% of Control (POC).

Turning to `COc1cnc(Nc2ccc(OC)nc2)c(-c2nc(C)nc(N)n2)c1` [Example 33, 4-(5-Methoxy-2-(6-Methoxypyridin-3-Ylamino)Pyridin-3-yl)-6-Methyl-1,3,5-Triazin-2-Amine], the “Mutant B-raf HTRF Assay POC Mean n = 2” value in assay [1] is 94% of Control (POC).

Consider `COc1ccc(Nc2ncc(CN3CCN(S(C)(=O)=O)CC3)cc2-c2nc(C)nc(N)n2)cn1` [Example 35, 4-(2-(6-methoxypyridin-3-ylamino)-5-((4-(methylsulfonyl)piperazin-1-yl)methyl)pyridin-3-yl)-6-methyl-1,3,5-triazin-2-amine], for which the “Mutant B-raf HTRF Assay POC Mean n = 2” value in assay [1] is 98% of Control (POC). The same measure, in the same setting: next, `COc1ccc(Nc2ncc(CN3CCNCC3)cc2-c2nc(C)nc(N)n2)cn1` [Example 41, 4-(2-(6-methoxypyridin-3-ylamino)-5-(piperazin-1-ylmethyl)pyridin-3-yl)-6-methyl-1,3,5-triazin-2-amine]: 96% of Control (POC); `COc1ccc(Nc2ncc(CN3CCOCC3)cc2-c2nc(C)nc(N)n2)cn1` [Example 44, 4-(2-(6-methoxypyridin-3-ylamino)-5-(morpholinomethyl)pyridin-3-yl)-6-methyl-1,3,5-triazin-2-amine]: 94% of Control (POC).

On to `Cc1nc(-c2cccnc2Nc2cccc3[nH]ccc23)c2nc[nH]c2n1` [Example 56, N-(3-(2-methyl-9H-purin-6-yl)pyridin-2-yl)-1H-indol-4-amine], for which, in assay [1], the “Mutant B-raf HTRF Assay POC Mean n = 2” value is given as 58% of Control (POC). Regarding `C=Cc1cnc(Nc2ccc(OC)nc2)c(-c2nc(C)nc3[nH]cnc23)c1` [Example 73, N-(6-methoxypyridin-3-yl)-3-(2-methyl-9H-purin-6-yl)-5-vinylpyridin-2-amine], the “Mutant B-raf HTRF Assay POC Mean n = 2” value in assay [1] is 108% of Control (POC). The 50% inhibitory concentration (IC50) in assay [2] came to 554 nM. As to `Cc1nc(N)cc(-c2cnccc2Nc2cccc3[nH]ccc23)n1` [Example 109, N-(3-(6-amino-2-methylpyrimidin-4-yl)pyridin-4-yl)-1H-indol-4-amine], the “Mutant B-raf HTRF Assay POC Mean n = 2” value in assay [1] was 35% of Control (POC). The IC50 in assay [2] was 821 nM. As to `COc1ncc(Nc2ncc(C(C)O)cc2-c2nc(C)nc(N)n2)cc1F` (stereo not drawn) [Example 349, 1-(5-(4-Amino-6-Methyl-1,3,5-Triazin-2-yl)-6-(5-Fluoro-6-Methoxypyridin-3-Ylamino)Pyridin-3-yl)Ethanol], the inhibition constant (Ki) in assay [3] was determined as 59 nM. The IC50 in assay [2] is 13 nM. Turning to `COc1cc(Nc2ncc(C(C)(C)O)cc2-c2nc(C)nc(N)n2)cnc1OC` [Example 350, 2-(5-(4-Amino-6-Methyl-1,3,5-Triazin-2-yl)-6-(5,6-Dimethoxypyridin-3-Ylamino)Pyridin-3-yl)Propan-2-ol], in assay [3], the Ki was determined as 19 nM. Also, the half-maximal inhibitory concentration (IC50) in assay [2] stood at 7 nM.

On to `COc1ncc(Nc2ncc(C(OC(=O)c3cccc(Cl)c3)C(C)(C)O)cc2-c2nc(C)nc(N)n2)cc1F` (stereo not drawn) [Example 351, 1-(5-(4-Amino-6-Methyl-1,3,5-Triazin-2-yl)-6-(5-Fluoro-6-Methoxypyridin-3-Ylamino)Pyridin-3-yl)-2-Hydroxy-2-Methylpropyl 3-Chlorobenzoate], for which the Ki in assay [3] came out at 9 nM. The half-maximal inhibitory concentration (IC50) in assay [2] turned out to be 70 nM.

Take `COc1ncc(Nc2ncc(C(C)(C)O)cc2-c2nc(C)nc(N)n2)cc1C` [Example 354, 2-(5-(4-Amino-6-Methyl-1,3,5-Triazin-2-yl)-6-(6-Methoxy-5-Methylpyridin-3-Ylamino)Pyridin-3-yl)Propan-2-ol]: the Ki in assay [3] was found to be 12 nM. The IC50 in assay [2] was determined as 37 nM. Consider `COc1ncc(Nc2ncc(CN3CCN(C(=O)N(C)C(C)C)CC3)cc2-c2nc(C)nc(N)n2)cc1F` [Example 357, 4-((5-(4-Amino-6-Methyl-1,3,5-Triazin-2-yl)-6-(5-Fluoro-6-Methoxypyridin-3-Ylamino)Pyridin-3-yl)Methyl)-N-Isopropyl-N-Methylpiperazine-1-Carboxamide], for which the Ki in assay [3] came out at 14 nM. In addition, in assay [2], the 50% inhibitory concentration (IC50) stood at 83 nM. For the molecule `COc1ncc(Nc2ncc([C@@H](C)N3CCN(S(C)(=O)=O)C[C@@H]3C)cc2-c2nc(C)nc(N)n2)cn1` [Example 362, 4-(2-(2-Methoxypyrimidin-5-Ylamino)-5-((R)-1-((S)-2-Methyl-4-(Methylsulfonyl)Piperazin-1-yl)Ethyl)Pyridin-3-yl)-6-Methyl-1,3,5-Triazin-2-Amine], the Ki in assay [3] stood at 2 nM. Moreover, the IC50 in assay [2] is 10 nM.

As to `Cc1nc(N)nc(-c2cc([C@@H](C)N3CCN(S(C)(=O)=O)C[C@@H]3C)cnc2Nc2ccc(Cl)nc2)n1` [Example 363, 4-(2-(6-Chloropyridin-3-Ylamino)-5-((R)-1-((S)-2-Methyl-4-(Methylsulfonyl)Piperazin-1-yl)Ethyl)Pyridin-3-yl)-6-Methyl-1,3,5-Triazin-2-Amine], the inhibition constant (Ki) in assay [3] stood at 15 nM. Besides, the IC50 in assay [2] is 31 nM.

For the molecule `COc1ncc(Nc2ncc(CN3CCN(S(C)(=O)=O)[C@H](C)C3)cc2-c2nc(C)nc(N)n2)cc1F` [Example 364, (R)-4-(2-(5-Fluoro-6-Methoxypyridin-3-Ylamino)-5-((3-Methyl-4-(Methylsulfonyl)Piperazin-1-yl)Methyl)Pyridin-3-yl)-6-Methyl-1,3,5-Triazin-2-Amine], the Ki in assay [3] stood at 5 nM. In assay [2], the half-maximal inhibitory concentration (IC50) turned out to be 7 nM. The like results for `COc1cnc(Nc2cnc(Cl)c(N)c2)c(-c2nc(C)nc(N)n2)c1` [Example 368, N5-(3-(4-Amino-6-Methyl-1,3,5-Triazin-2-yl)-5-Methoxypyridin-2-yl)-2-Chloropyridine-3,5-Diamine] were, in that order, 270 nM and 117 nM. As to `Cc1nc(N)nc(-c2cc(C(C)N3CCOCC3)cnc2Nc2cnc(Cl)c(NS(C)(=O)=O)c2)n1` (stereo not drawn) [Example 369, N-(5-(3-(4-Amino-6-Methyl-1,3,5-Triazin-2-yl)-5-(1-Morpholinoethyl)Pyridin-2-Ylamino)-2-Chloropyridin-3-yl)Methanesulfonamide], in assay [3], the Ki turned out to be 8 nM. The 50% inhibitory concentration (IC50) in assay [2] was 9 nM. The like results for `Cc1nc(N)nc(-c2cc(C(C)N3CCOCC3)cnc2Nc2cnc(Cl)c(NS(=O)(=O)N(C)C)c2)n1` (stereo not drawn) [Example 370, N-(5-(3-(4-Amino-6-Methyl-1,3,5-Triazin-2-yl)-5-(1-Morpholinoethyl)Pyridin-2-Ylamino)-2-Chloropyridin-3-yl)-N,N-Dimethylaminosulfamide] were, in that order, 10 nM and 3 nM. The like results for `Cc1nc(N)nc(-c2cc([C@@H](C)N3CCOCC3)cnc2Nc2cnc(Cl)c(NS(=O)(=O)N(C)C)c2)n1` [Example 373, (R)—N-(5-(3-(4-Amino-6-Methyl-1,3,5-Triazin-2-yl)-5-(1-Morpholinoethyl)Pyridin-2-Ylamino)-2-Chloropyridin-3-yl)-N,N-Dimethylaminosulfamide] were, in that order, 6 nM and 1 nM. The like results for `Cc1nc(N)nc(-c2cc([C@H](C)N3CCOCC3)cnc2Nc2cnc(Cl)c(NS(=O)(=O)N(C)C)c2)n1` [Example 374, (S)—N-(5-(3-(4-Amino-6-Methyl-1,3,5-Triazin-2-yl)-5-(1-Morpholinoethyl)Pyridin-2-Ylamino)-2-Chloropyridin-3-yl)-N,N-Dimethylaminosulfamide] were, in that order, 15 nM and 7 nM. `Cc1nc(N)cc(-c2cccnc2Nc2cnc(Cl)c(NS(=O)(=O)N(C)C)c2)n1` [Example 375, N-(5-(3-(6-Amino-2-Methylpyrimidin-4-yl)Pyridin-2-Ylamino)-2-Chloropyridin-3-yl)-N,N-Dimethylaminosulfamide]: the Ki in assay [3] came out at 152 nM. In assay [2], the 50% inhibitory concentration (IC50) is 175 nM.

`COCCOc1cnc(Nc2cnc(C)c(NS(C)(=O)=O)c2)c(-c2nc(C)nc(N)n2)c1` [Example 376, N-(5-(3-(4-Amino-6-Methyl-1,3,5-Triazin-2-yl)-5-(2-Methoxyethoxy)Pyridin-2-Ylamino)-2-Methylpyridin-3-yl)Methanesulfonamide]: in assay [3], the inhibition constant Ki is 71 nM. In addition, the half-inhibitory concentration (IC50) in assay [2] came out at 267 nM. For the molecule `Cc1nc(N)nc(-c2cccnc2Nc2cnc(C)c(NS(C)(=O)=O)c2)n1` [Example 377, N-(5-(3-(4-Amino-6-Methyl-1,3,5-Triazin-2-yl)Pyridin-2-Ylamino)-2-Methylpyridin-3-yl)Methanesulfonamide], the Ki in assay [3] was found to be 279 nM. In addition, the IC50 in assay [2] was 364 nM. The like results for `C=Cc1cnc(Nc2cnc(Cl)c(NS(C)(=O)=O)c2)c(-c2cc(N)nc(C)n2)c1` [Example 380, N-(5-(3-(6-Amino-2-Methylpyrimidin-4-yl)-5-Vinylpyridin-2-Ylamino)-2-Chloropyridin-3-yl)Methanesulfonamide] were, in that order, 59 nM and 16 nM. The like results for `COc1ncc(Nc2ncc(CN3CCN4C(CCS4(=O)=O)C3)cc2-c2nc(C)nc(N)n2)cc1F` (stereo not drawn) [Example 383, 4-(5-((1,1-Dioxidohexahydro-5H-Isothiazolo[2,3-A]Pyrazin-5-yl)Methyl)-2-((5-Fluoro-6-Methoxy-3-Pyridinyl)Amino)-3-Pyridinyl)-6-Methyl-1,3,5-Triazin-2-Amine] were, in that order, 7 nM and 8 nM.

What is called IC50 is the midpoint of a concentration-inhibition curve. Usually Ki stands for the dissociation constant of the complex between target and ligand, obtained from inhibition or displacement.

Source of the values: patent US8772480B2, “Inhibitors of PI3 kinase and/or mTOR” (priority 2009, dated 2014).
